From patent US10100019B2

How the values were obtained:
H3122 cells = experiment: Cytotoxicity in non-small cell lung cancer cell line H3122 (SRB); format: cell-based, human; settings: H3122 cells, three days, SRB
Procedure: Particularly, 4,000 H3122 cells containing ALK enzyme were distributed in each well of a 96 well plate together with 100 μl of DMEM (Dulbecco's Modified Eagle's Medium). One day later, the compound of the present invention was added to each well at different concentrations of […]. DMSO (dimethylsulfoxide) was added to the well that was not loaded with the compound by the same amount as the compound. Three days after the addition of the compound, DMEM was eliminated. 10% TCA (trichloroacetic acid) was added to fix the cells. The wells were washed with running water three times and the live cells were stained with SRB solution (1 sulphorodamine B). Then, OD was measured to calculate the population of the live cells.

H2228 cells = experiment: cells; settings: Homo sapiens, NCI-H2228, 72 h, read-out: Cytotoxicity H2228 (GI50 μM), H2228 cells, three days, SRB

Row | SMILES | GI50 (H3122 cells; Homo sapiens, NCI-H3122, 72 h) [µM] | GI50 (H2228 cells) [µM] | GI50 (H3122 cells) [µM]
1 | COc1ccc(C2(CN)CCCC2)cc1Nc1ncc(Cl)c(Nc2ccccc2S(=O)(=O)C(C)C)n1 [Example 1, N2-(5-(1-(aminomethyl)cyclopentyl)-2-methoxyphenyl)-5-chloro-N4-(2-(isopropylsulfonyl)phenyl)pyrimidine-2,4-diamine] | 3.06 | 2.1 | 
2 | COc1ccc(C2(CN)CCCCC2)cc1Nc1ncc(Cl)c(Nc2ccccc2S(=O)(=O)C(C)C)n1 [Example 2, N2-(5-(1-(aminomethyl)cyclohexyl)-2-methoxyphenyl)-5-chloro-N4-(2-(isopropylsulfonyl)phenyl)pyrimidine-2,4-diamine] | 2.63 | 3.77 | 
3 | COc1ccc(CC2(N)CC2)cc1Nc1ncc(Cl)c(Nc2ccccc2S(=O)(=O)C(C)C)n1 [Example 3, N2-(5-((1-aminocyclopropyl)methyl)-2-methoxyphenyl)-5-chloro-N4-(2-(isopropylsulfonyl)phenyl)pyrimidine-2,4-diamine] | 0.77 | 1.21 | 
4 | COc1ccc(CCN)cc1Nc1ncc(Cl)c(Nc2ccccc2S(=O)(=O)C(C)C)n1 [Example 4, N2-(5-(2-aminoethyl)-2-methoxyphenyl)-5-chloro-N4-(2-(isopropylsulfonyl)phenyl) pyrimidine-2,4-diamine] | ≤ 0.1 |  | 0.08
5 | COc1ccc(C2(CN3CCCCC3)CCCC2)cc1Nc1ncc(Cl)c(Nc2ccccc2S(=O)(=O)C(C)C)n1 [Example 5] |  | 7.8 | 10
6 | COc1ccc(C2(CN3CCOCC3)CCCC2)cc1Nc1ncc(Cl)c(Nc2ccccc2S(=O)(=O)C(C)C)n1 [Example 6, 5-chloro-N4-(2-(isopropylsulfonyl)phenyl)-N2-(2-methoxy-5-(1-(morpholinomethyl)cyclopentyl)phenyl)pyrimidine-2,4-diamine] |  | 10 | 10
7 | COc1ccc(CCNC(C)=O)cc1Nc1ncc(Cl)c(Nc2ccccc2S(=O)(=O)C(C)C)n1 [Example 7, N-(3-(5-chloro-4-(2-(isopropylsulfonyl)phenylamino)pyrimidine-2-ylamino)-4-methoxyphenethyl)acetamide] | 0.79 | 0.8 | 
8 | COc1ccc(CCNS(C)(=O)=O)cc1Nc1ncc(Cl)c(Nc2ccccc2S(=O)(=O)C(C)C)n1 [Example 8, N-(3-(5-chloro-4-(2-(isopropylsulfonyl)phenylamino)pyrimidine-2-ylamino)-4-methoxyphenethyl) methanesulfonamide] | 1.9 | 0.88 | 
9 | COc1ccc(CCN(C)C)cc1Nc1ncc(Cl)c(Nc2ccccc2S(=O)(=O)C(C)C)n1 [Example 9, 5-chloro-N2-(5-(2-(dimethylamino)ethyl)-2-methoxyphenyl)-N4-(2-(isopropylsulfonyl)phenyl)pyrimidine-2,4-diamine] | 0.22 | 0.23 | 
10 | CNCCc1ccc(OC)c(Nc2ncc(Cl)c(Nc3ccccc3S(=O)(=O)C(C)C)n2)c1 [Example 10, 5-chloro-N4-(2-(isopropylsulfonyl)phenyl)-N2-(2-methoxy-5-(2-(methylamino)ethyl)phenyl)pyrimidine-2,4-diamine] | 1.2 | 1.8 | 
11 | COc1ccc(CCNCc2ccccc2)cc1Nc1ncc(Cl)c(Nc2ccccc2S(=O)(=O)C(C)C)n1 [Example 11, N2-(5-(2-(benzylamino)ethyl)-2-methoxyphenyl)-5-chloro-N4-(2-(isopropylsulfonyl)phenyl)pyrimidine-2,4-diamine] | 1.4 | 1.4 | 
12 | COc1ccc(CCNC(=O)Cc2ccccc2)cc1Nc1ncc(Cl)c(Nc2ccccc2S(=O)(=O)C(C)C)n1 [Example 12, N-(3-(5-chloro-4-(2-(isopropylsulfonyl)phenylamino)pyrimidine-2-ylamino)-4-methoxyphenethyl)-2-phenylacetamide] | 4.7 | 1.1 | 
13 | CCNCCc1ccc(OC)c(Nc2ncc(Cl)c(Nc3ccccc3S(=O)(=O)C(C)C)n2)c1 [Example 13, 5-chloro-N2-(5-(2-(ethylamino)ethyl)-2-methoxyphenyl)-N4-(2-(isopropylsulfonyl)phenyl)pyrimidine-2,4-diamine] | 0.99 | 0.87 | 
14 | CCN(CC)CCc1ccc(OC)c(Nc2ncc(Cl)c(Nc3ccccc3S(=O)(=O)C(C)C)n2)c1 [Example 14, 5-chloro-N2-(5-(2-(diethylamino)ethyl)-2-methoxyphenyl)-N4-(2-(isopropylsulfonyl)phenyl)pyrimidine-2,4-diamine] | ≤ 0.1 | 0.09 | 0.05
15 | COc1ccc(CCCNC(=O)C(F)(F)F)cc1Nc1ncc(Cl)c(Nc2ccccc2S(=O)(=O)C(C)C)n1 [Example 40, N-(3-(3-((5-chloro-4-((2-(isopropylsulfonyl)phenyl)amino)pyrimidine-2-yl)amino)-4-methoxyphenyl)propyl)-2,2,2-trifluoroacetamide] | 0.33 |  | 
16 | COc1ccc(CCCN)cc1Nc1ncc(Cl)c(Nc2ccccc2S(=O)(=O)C(C)C)n1 [Example 41, N2-(5-(3-aminopropyl)-2-methoxyphenyl)-5-chloro-N4-(2-(isopropylsulfonyl)phenyl)pyrimidine-2,4-diamine] | 0.19 |  | 
17 | COc1ccc(CC(N)=O)cc1Nc1ncc(Cl)c(Nc2ccccc2S(=O)(=O)C(C)C)n1 [Example 42, 2-(3-((5-chloro-4-((2-(isopropylsulfonyl)phenyl)amino)pyrimidine-2-yl)amino)-4-methoxyphenyl)acetamide] | 0.15 |  | 
18 | CCOCCOC(=O)Cc1ccc(OC)c(Nc2ncc(Cl)c(Nc3ccccc3S(=O)(=O)C(C)C)n2)c1 [Example 43, 2-ethoxyethyl 2-(3-((5-chloro-4-((2-(isopropylsulfonyl)phenyl)amino)pyrimidine-2-yl)amino)-4-methoxyphenyl)acetate] | > 10 |  | 
19 | COc1ccc(CC(=O)O)cc1Nc1ncc(Cl)c(Nc2ccccc2S(=O)(=O)C(C)C)n1 [Example 44, 2-(3-((5-chloro-4-((2-(isopropylsulfonyl)phenyl)amino)pyrimidine-2-yl)amino)-4-methoxyphenyl)acetic acid] | 1 |  | 
20 | COc1ccc(CC(=O)N2CCOCC2)cc1Nc1ncc(Cl)c(Nc2ccccc2S(=O)(=O)C(C)C)n1 [Example 45, 2-(3-((5-chloro-4-((2-(isopropylsulfonyl)phenyl)amino)pyrimidine-2-yl)amino)-4-methoxyphenyl)-1-morpholinoethane-1-one] |  |  | 10
21 | COc1ccc(CC(=O)N2CCCCC2)cc1Nc1ncc(Cl)c(Nc2ccccc2S(=O)(=O)C(C)C)n1 [Example 46, 2-(3-((5-chloro-4-((2-(isopropylsulfonyl)phenyl)amino)pyrimidine-2-yl)amino)-4-methoxyphenyl)-1-(piperidine-1-yl)ethane-1-one] |  |  | 10
22 | COc1ccc(CC(=O)N2CCNCC2)cc1Nc1ncc(Cl)c(Nc2ccccc2S(=O)(=O)C(C)C)n1 [Example 48, 2-(3-((5-chloro-4-((2-(isopropylsulfonyl)phenyl)amino)pyrimidine-2-yl)amino)-4-methoxyphenyl)-1-(piperazine-1-yl) ethane-1-one] | 0.58 |  | 
23 | COc1ccc(CC(=O)Nc2ccncc2)cc1Nc1ncc(Cl)c(Nc2ccccc2S(=O)(=O)C(C)C)n1 [Example 49, 2-(3-((5-chloro-4-((2-(isopropylsulfonyl)phenyl)amino)pyrimidine-2-yl)amino)-4-methoxyphenyl)-N-(pyridine-4-yl)acetamide] |  |  | 10
24 | COc1ccc(CC(=O)Nc2ccccc2)cc1Nc1ncc(Cl)c(Nc2ccccc2S(=O)(=O)C(C)C)n1 [Example 50, 2-(3-((5-chloro-4-((2-(isopropylsulfonyl)phenyl)amino)pyrimidine-2-yl)amino)-4-methoxyphenyl)-N-phenylacetamide] |  |  | 10
25 | COc1cc(Br)c(CCN)cc1Nc1ncc(Cl)c(Nc2ccccc2S(=O)(=O)C(C)C)n1 [Example 51, N2-(5-(2-aminoethyl)-4-bromo-2-methoxyphenyl)-5-chloro-N4-(2-(isopropylsulfonyl)phenyl)pyrimidine-2,4-diamine] | 1.1 |  | 
26 | COc1cc(-c2cnn(C)c2)c(CCN)cc1Nc1ncc(Cl)c(Nc2ccccc2S(=O)(=O)C(C)C)n1 [Example 52, N2-(5-(2-aminoethyl)-2-methoxy-4-(1-methyl-1H-pyrazole-4-yl)phenyl)-5-chloro-N4-(2-(isopropylsulfonyl)phenyl)pyrimidine-2,4-diamine] | 0.096 |  | 
27 | COc1cc(C(C)(C)N)c(C)cc1Nc1ncc(Cl)c(Nc2ccccc2S(=O)(=O)C(C)C)n1 [Example 57, N2-(4-(2-aminopropane-2-yl)-2-methoxy-5-methylphenyl)-5-chloro-N4-(2-(isopropylsulfonyl)phenyl)pyrimidine-2,4-diamine] | 0.012 |  | 
28 | COc1cc(CN)c(C)cc1Nc1ncc(Cl)c(Nc2ccccc2S(=O)(=O)C(C)C)n1 [Example 68, N2-(4-(aminomethyl)-2-methoxy-5-methylphenyl)-5-chloro-N4-(2-(isopropylsulfonyl)phenyl)pyrimidine-2,4-diamine] | 0.11 |  | 
29 | COc1cc(C[N+](C)(C)C)c(C)cc1Nc1ncc(Cl)c(Nc2ccccc2S(=O)(=O)C(C)C)n1 [Example 69, 1-(4-((5-chloro-4-((2-(isopropylsulfonyl)phenyl)amino)pyrimidine-2-yl)amino)-5-methoxy-2-methylphenyl)-N,N,N-trimethylmethanealuminum iodide] | 1.7 |  | 
30 | COc1ccc(CCN2CCNCC2)cc1Nc1ncc(Cl)c(Nc2ccccc2S(=O)(=O)C(C)C)n1 [Example 73, 5-chloro-N4-(2-(isopropylsulfonyl)phenyl)-N2-(2-methoxy-5-(2-(piperazine-1-yl)ethyl)phenyl)pyrimidine-2,4-diamine] | 0.16 |  | 
